Where two headings read alike, the source gives them in different places.

In one experiment the test system is L. major promastigotes. As to the kind of experiment: L. major promastigote dose response assay (alamarBlue/resazurin). Type of experiment: cell-based. Conditions: 44 hrs + 4 hrs alamarBlue/resazurin, 26° C. Here is the method:
Using a standard alamarBlue™ assay, activity and selectivity were assessed using L. major promastigotes and HepG2 cells, respectively.
All parasite and human cell cultures were grown and manipulated following biosafety level 2 instructions under sterile conditions. L. major FV1, L. amazonensis (MHOM/Br/75/JOSEFA), L. donovani BOB (derived from MHOM/SD/62/1S-CL2D), T. brucei (90-13, 427 strain) and T. cruzi (Dm28c) were used throughout.
All steps were carried out under sterile conditions. Frozen stocks of the relevant Leishmania promastigote species were thawed rapidly and added to Schneider's media. Promastigotes were grown at 26° C. in Nunc EasYFlask 25 cm^2 Nunclon Delta Surface (ThermoScientific) and frozen stocks were prepared on low passage cultures (p2-4) by pelleting the cells by centrifugation and resuspending in Schneider's media with 10% DMSO. The cultures were aliquoted into cryovials (Starlab) and cooled slowly to −150° C. for long term storage.
All steps were carried out under sterile conditions. […] Cycloheximide or amphotericin B were used as positive controls and 2% DMSO was used as a negative control. alamarBlue® (ThermoFisher scientific) or resazurin solution was added to each well and incubated for a further 4 hrs at 26° C. Cell-viability was determined using a BioTek™ FLx800 microplate reader with Gen5® 1.08 data analysis software (BioTek) by monitoring fluorescence emission (λex 560/λem 590 nm). Dose response curves were fitted using sigmoidal regression analysis (GraphPad Prism 8 software) and used to calculate EC50 values.
For orientation: The colour change of resazurin is a common sign of viable cells or microbes.

The subject of experiment [1] is L. amazonensis promastigotes. As to the kind of experiment: L. amazonensis promastigote dose response assay (alamarBlue/resazurin). Type of experiment: cell-based. Conditions: 44 hrs + 4 hrs alamarBlue/resazurin, 26° C., read-out: EC50 (L. amaz)/μM.

As to `CNC(=O)c1c(C)cccc1NC(=O)c1ccc([N+](=O)[O-])s1` [Compound 40, N-[3-methyl-2-(methylcarbamoyl)phenyl]-5′-nitrothiophene-2′-carboxamide], the EC50 in the experiment on L. major promastigotes came out at 8.5 µM. For the compound `O=C(N[C@H]1CCC[C@H]1C(=O)O)c1ccc([N+](=O)[O-])s1` (racemic) [Compound 23, ±syn 2-(5′-nitrothiophene-2′-amido)cyclopentane-1-carboxylic acid], the results for the EC50 (with L. major promastigotes; in experiment [1]) were > 100 µM and 52 µM, respectively. As to `CCOC(=O)C1CCCC1NC(=O)c1ccc([N+](=O)[O-])s1` (stereo not drawn) [Compound 21, syn-ethyl-2-(5′-nitrothiophene-2′-amido)cyclopentane-1-carboxylate], the EC50 in the experiment on L. major promastigotes was found to be 22 µM; in experiment [1], 9.7 µM. Consider `CNC(=O)c1ccsc1NC(=O)c1cnc(Cl)s1` [Compound 9, N-[3-(methylcarbamoyl)thiophen-2-yl]-2′-chloro-1′,3′-thiazole-5′-carboxamide], for which the EC50 in the experiment on L. major promastigotes (Leishmania major, 48 h) came out at 33 ± 10 µM. Take `CNC(=O)c1ccsc1NC(=O)c1ccccc1` [Compound 10, 2-benzamido-N-methylthiophene-3-carboxamide]: the EC50 came out at 75 ± 5 µM in the experiment with L. major promastigotes (Leishmania major, 48 h) and 55 ± 5 µM in experiment [1] (Leishmania amazonensis, 48 h).

In the case of `CNC(=O)c1ccsc1NC(=O)c1cccc([N+](=O)[O-])c1` [Compound 18, N-methyl-2-(3′-nitrobenzamido)thiophene-3-carboxamide], the EC50 was > 100 µM with L. major promastigotes (Leishmania major, 48 h) and > 100 µM in experiment [1] (Leishmania amazonensis, 48 h). With `CC(=O)c1ccccc1NC(=O)c1ccc([N+](=O)[O-])s1` [Compound 32, N-(2-acetylphenyl)-5′-nitrothiophene-2′-carboxamide], the EC50 in the experiment on L. major promastigotes is 16 µM. As for “5′-amino-N-[3-(methylcarbamoyl)thiophen-2′-yl]thiophene-2-carboxamide [Compound 8]”, the EC50 in the experiment with L. major promastigotes was > 100 µM. Take `CCOC(=O)C1=C(NC(=O)c2ccc([N+](=O)[O-])s2)CCC1` [Compound 26, Ethyl 2-(5′-nitrothiophene-2′-amido)cyclopent-1-ene-1-carboxylate]: the EC50 with L. major promastigotes (Leishmania major, 48 h) was 0.46 µM; in experiment [1] (Leishmania amazonensis, 48 h), 0.72 µM. For `O=c1oc(-c2ccc([N+](=O)[O-])s2)nc2ccccc12` [Compound 57, 2-(5′-nitrothiophen-2′-yl)-4H-3,1-benzoxazin-4-one], the EC50 in the experiment with L. major promastigotes (Leishmania major, 48 h) came out at 38 µM.

With `CCCCCCCCCCCCCNC(=O)c1ccccc1NC(=O)c1ccc([N+](=O)[O-])s1` [Compound 39, 5′-nitro-N-[2-(tridecylcarbamoyl)phenyl]thiophene-2′-carboxamide], in the experiment on L. major promastigotes, the EC50 was > 100 µM.

As to `CNC(=O)c1cc(OC)ccc1NC(=O)c1ccc([N+](=O)[O-])s1` [Compound 41, N-[4-methoxy-2-(methylcarbamoyl)phenyl]-5′-nitrothiophene-2′-carboxamide], in the experiment with L. major promastigotes, the EC50 came to 16 µM. On the same count and under the same terms, the same measure for `CC(C)NC(=O)c1ccccc1NC(=O)c1ccc([N+](=O)[O-])s1` [Compound 38, 5′-nitro-N-{[(propan-2-yl)carbamoyl]-2-phenyl}thiophene-2′-carboxamide]: 4 µM. Turning to `CNC(=O)c1cc(C)ccc1NC(=O)c1ccc([N+](=O)[O-])s1` [Compound 42, N-[4-methyl-2-(methylcarbamoyl)phenyl]-5′-nitrothiophene-2′-carboxamide], the EC50 in the experiment on L. major promastigotes amounted to 2.7 µM.

Consider `COc1cccc(NC(=O)c2ccc([N+](=O)[O-])s2)c1` [Compound 35, N-(3-methoxyphenyl)-5′-nitrothiophene-2′-carboxamide], for which the EC50 in the experiment on L. major promastigotes amounted to 3.9 µM. Consider `COc1ccc(NC(=O)c2ccc([N+](=O)[O-])s2)cc1` [Compound 36, N-(4-methoxyphenyl)-5′-nitrothiophene-2′-carboxamide], for which the EC50 in the experiment with L. major promastigotes came out at 3.45 µM.

On to `COc1ccccc1NC(=O)c1ccc([N+](=O)[O-])s1` [Compound 30, N-(2-methoxyphenyl)-5′-nitrothiophene-2′-carboxamide], for which the EC50 in the experiment on L. major promastigotes turned out to be 6.3 µM. For `O=C(Nc1ccccc1C(=O)O)c1ccc([N+](=O)[O-])s1` [Compound 29, 2-(5′-nitrothiophene-2′-amido)benzoic acid], in the experiment on L. major promastigotes (Leishmania major, 48 h), the EC50 was 46 µM.

The values are drawn from patent publication US20260125356A1, “TREATMENT OF LEISHMANIASIS” (THE UNIVERSITY OF DURHAM, priority 2022, published 2026).
